Measurements as given in the NIST ThermoML archive (doi:10.1016/j.tca.2010.01.021).

Assay: molar heat capacity at constant pressure
Conditions: 101.33 kPa, Crystal, Small (less than 1 g) adiabatic calorimetry

N.O=C(O)c1ccccc1 [ammonium benzoate]
Conditions | molar heat capacity at constant pressure [J/K/mol]
80.23 K | 65.17
81.77 K | 66.19
84.03 K | 67.46
86.2 K | 68.89
88.38 K | 69.94
90.56 K | 71.51
92.57 K | 72.72
94.64 K | 74.19
96.64 K | 75.8
98.62 K | 77.01
100.55 K | 78.03
102.41 K | 79.33
104.34 K | 80.86
106.2 K | 81.8
107.97 K | 83.16
109.83 K | 84.27
111.6 K | 85.3
113.37 K | 86.37
115.15 K | 87.62
116.84 K | 88.74
118.61 K | 90.01
120.31 K | 91.47
122.97 K | 92.89
126.27 K | 94.89
129.18 K | 96.99
132.16 K | 98.85
135.06 K | 100.95
138.04 K | 102.77
141.02 K | 104.57
144.01 K | 106.24
147 K | 108.24
149.93 K | 110.5
152.9 K | 112.26
155.86 K | 113.91
158.85 K | 116.09
161.8 K | 118.15
164.77 K | 120.01
167.74 K | 121.97
170.72 K | 124.05
173.71 K | 125.52
176.67 K | 127.13
179.65 K | 129.42
183.76 K | 131.94
187.79 K | 134.2
190.78 K | 136.42
193.75 K | 138.62
196.71 K | 140.39
199.69 K | 142.17
202.71 K | 144.2
205.7 K | 146.13
208.67 K | 148.09
211.63 K | 149.94
214.62 K | 152.01
217.63 K | 153.98
220.61 K | 155.64
223.59 K | 157.46
226.57 K | 159.31
229.56 K | 161.33
232.46 K | 163.12
235.52 K | 164.85
238.67 K | 166.71
242.46 K | 169.25
246.17 K | 170.85
249.15 K | 172.58
252.13 K | 174.29
255.04 K | 176.25
258.02 K | 177.81
261.08 K | 179.36
264.07 K | 180.92
267.13 K | 182.91
270.11 K | 184.57
273.1 K | 186.5
276.05 K | 188.1
279 K | 189.37
281.97 K | 190.96
284.95 K | 192.56
287.93 K | 194.07
291 K | 195.71
293.98 K | 197.29
296.96 K | 199.56
299.95 K | 200.88
302.93 K | 203.11
305.83 K | 204.55
308.82 K | 205.93
311.72 K | 207.7
314.7 K | 209.41
317.68 K | 210.92
320.75 K | 212.63
323.73 K | 214.01
326.71 K | 215.52
329.78 K | 216.96
332.76 K | 218.8
335.75 K | 220.31
338.73 K | 222.08
341.71 K | 223.72
344.61 K | 225.36
347.6 K | 226.81
350.5 K | 228.38
353.48 K | 229.7
356.55 K | 231.21
359.53 K | 232.72
362.59 K | 234.1
365.58 K | 235.61
368.56 K | 237.58
371.54 K | 239.09
374.53 K | 240.86
377.51 K | 242.44
380.49 K | 243.95
383.4 K | 245.72
386.3 K | 247.56
389.28 K | 249.39
392.35 K | 251.17
395.33 K | 252.68
398.31 K | 254.12
